Key:
[1] = Enzymatic hydrolysis of thioester bond in cytosol; assay type: in vitro ADME; conditions: GSH derivative 0, 16 mM; for enzymatic hydrolysis specific activity of thioester bond, Cytosol: mean ± SD on 6 tests
Description: (§1) |The enzymatic hydrolysis specific activity of thioester |bond is expressed as -SH released nmoles/min/mg of […]. […] Spontaneous hy- |drolysis of the substrates ranges from 1% to 10% maxi- |mum. […] |sts.

[2] = Enzymatic hydrolysis of thioester bond in serum; assay type: in vitro ADME; conditions: GSH derivative 0, 16 mM, mean ± SD on 6 tests
Description: as §1

SMILES	enzymatic hydrolysis specific activity of thioester bond, Cytosol [1]	Ratio (intracellular to extracellular hydrolysis rate, Cytosol/Serum) [1]	enzymatic hydrolysis specific activity of thioester bond, Serum [2]
CC(=O)SC[C@H](NC(=O)CC[C@H](N)C(=O)O)C(=O)NCC(=O)O [S-acetyl, γ-L-glutamyl-S-acetyl-L-cysteinyl-glycine]	10,8 ± 1,5 -SH released nmoles/min/mg of		0 -SH released nmoles/min/mg of
CCOC(=O)CNC(=O)[C@H](CSC(=O)c1ccccc1)NC(=O)CC[C@H](N)C(=O)OCC [S-benzoyl-diethylester]	1,45 ± 0,8 -SH released nmoles/min/mg of	18,5	0,07 ± 0,005 -SH released nmoles/min/mg of
CC(C)(C)C(=O)SC[C@H](NC(=O)CC[C@H](N)C(=O)O)C(=O)NCC(=O)O [S-pivaloyl, γ-L-glutamyl-S-pivaloyl-L-cysteinyl-glycine]	6,9 ± 0,7 -SH released nmoles/min/mg of		0 -SH released nmoles/min/mg of

More lines, main results first:

enzymatic hydrolysis specific activity of thioester bond, Cytosol [1]	Ratio (intracellular to extracellular hydrolysis rate, Cytosol/Serum) [1]	SMILES	enzymatic hydrolysis specific activity of thioester bond, Serum [2]
3,2 ± 1,1 -SH released nmoles/min/mg of	80,0	N[C@@H](CCC(=O)N[C@@H](CSC(=O)c1ccccc1)C(=O)NCC(=O)O)C(=O)O [S-benzoyl, γ-L-glutamyl-S-benzoyl-L-cysteinyl-glycine]	0,04 ± 0,005 -SH released nmoles/min/mg of
0,6 ± 0,08 -SH released nmoles/min/mg of	6,0	CCOC(=O)CNC(=O)[C@H](CSC(=O)c1ccccc1)NC(=O)CC[C@H](N)C(=O)O [S-benzoyl-monoethylester, ethyl γ-L-glutamyl-S-benzoyl-L-cysteinyl glycinate]	0,10 ± 0,004 -SH released nmoles/min/mg of
6,7 ± 0,9 -SH released nmoles/min/mg of	134,0	N[C@@H](CCC(=O)N[C@@H](CSC(=O)Cc1ccccc1)C(=O)NCC(=O)O)C(=O)O [S-phenylacetyl, γ-L-glutamyl-S-phenylacetyl-L-cysteinyl-glycine]	0,05 ± 0,003 -SH released nmoles/min/mg of
